Laboratory results: ChEMBL document CHEMBL4376879, “Fragment-to-Lead Medicinal Chemistry Publications in 2018” (J Med Chem, 2020)
Blank lines part the entries; values can stand above or below the compound they belong to.

How the values were obtained:
[1] = molecular target: Beta-2 adrenergic receptor (Homo sapiens, UniProt P07550); assay: Inhibition of beta2 adrenoreceptor (unknown origin)
[2] = molecular target: T1, Glycylpeptide N-tetradecanoyltransferase 1 (Homo sapiens, UniProt P30419); assay: Inhibition of human N-myristoyltransferase assessed as reduction in CoASH production by fluorogenic detection based assay
T1 sequence (P30419 whole entry): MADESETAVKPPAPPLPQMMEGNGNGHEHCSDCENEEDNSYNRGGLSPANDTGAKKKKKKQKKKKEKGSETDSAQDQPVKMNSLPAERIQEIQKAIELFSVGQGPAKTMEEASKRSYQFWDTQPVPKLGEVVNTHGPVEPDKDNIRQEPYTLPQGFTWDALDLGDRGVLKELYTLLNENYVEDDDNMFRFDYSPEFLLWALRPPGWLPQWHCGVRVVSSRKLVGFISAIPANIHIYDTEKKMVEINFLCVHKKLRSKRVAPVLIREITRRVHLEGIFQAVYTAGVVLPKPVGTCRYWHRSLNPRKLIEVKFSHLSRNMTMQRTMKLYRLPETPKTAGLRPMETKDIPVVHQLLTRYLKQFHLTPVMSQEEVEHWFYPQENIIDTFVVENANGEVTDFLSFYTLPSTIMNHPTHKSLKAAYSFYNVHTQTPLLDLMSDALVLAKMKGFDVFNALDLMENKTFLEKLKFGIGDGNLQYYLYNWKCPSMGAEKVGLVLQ

[3] = molecular target: cAMP and cAMP-inhibited cGMP 3',5'-cyclic phosphodiesterase 10A (Homo sapiens, UniProt Q9Y233); assay: Inhibition of human PDE10A2 using cAMP substrate by HTRF assay
Chain of cAMP and cAMP-inhibited cGMP 3',5'-cyclic phosphodiesterase 10A (Q9Y233 whole entry, the tested form may be a part): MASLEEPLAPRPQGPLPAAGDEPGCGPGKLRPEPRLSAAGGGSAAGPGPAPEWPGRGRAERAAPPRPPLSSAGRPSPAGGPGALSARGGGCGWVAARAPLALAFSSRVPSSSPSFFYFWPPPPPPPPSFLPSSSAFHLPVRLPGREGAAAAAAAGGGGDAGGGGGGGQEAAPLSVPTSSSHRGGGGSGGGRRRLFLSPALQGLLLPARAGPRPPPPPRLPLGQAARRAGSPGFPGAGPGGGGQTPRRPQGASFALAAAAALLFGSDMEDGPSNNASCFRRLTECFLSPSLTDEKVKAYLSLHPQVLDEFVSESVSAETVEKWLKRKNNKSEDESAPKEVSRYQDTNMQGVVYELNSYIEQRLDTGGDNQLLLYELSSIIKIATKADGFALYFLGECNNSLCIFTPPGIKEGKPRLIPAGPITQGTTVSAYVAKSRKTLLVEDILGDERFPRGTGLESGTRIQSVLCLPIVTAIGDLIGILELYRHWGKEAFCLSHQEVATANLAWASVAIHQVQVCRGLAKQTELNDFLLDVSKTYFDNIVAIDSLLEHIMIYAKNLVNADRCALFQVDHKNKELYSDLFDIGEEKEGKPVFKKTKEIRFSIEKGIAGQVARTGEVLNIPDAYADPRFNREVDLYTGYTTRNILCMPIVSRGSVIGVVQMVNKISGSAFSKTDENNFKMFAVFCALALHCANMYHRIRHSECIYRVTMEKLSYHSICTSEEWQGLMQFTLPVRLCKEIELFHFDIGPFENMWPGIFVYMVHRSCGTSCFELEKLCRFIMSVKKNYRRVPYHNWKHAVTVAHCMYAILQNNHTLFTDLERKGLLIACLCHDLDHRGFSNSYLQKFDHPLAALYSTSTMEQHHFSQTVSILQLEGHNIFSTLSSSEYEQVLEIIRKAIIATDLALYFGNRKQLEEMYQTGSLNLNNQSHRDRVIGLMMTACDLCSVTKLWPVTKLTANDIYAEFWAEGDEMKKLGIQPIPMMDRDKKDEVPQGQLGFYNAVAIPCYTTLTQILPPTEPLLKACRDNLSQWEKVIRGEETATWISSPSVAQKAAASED

GTPase HRas = GTPase HRas (Homo sapiens, UniProt P01112, G12V); assay: Inhibition GST-tagged recombinant HRAS G12V mutant (1 to 166 amino acids) (unknown origin) expressed in Escherichia coli C41(DE3) by SPR assay
Chain of GTPase HRas (P01112 whole entry G12V, the tested form may be a part): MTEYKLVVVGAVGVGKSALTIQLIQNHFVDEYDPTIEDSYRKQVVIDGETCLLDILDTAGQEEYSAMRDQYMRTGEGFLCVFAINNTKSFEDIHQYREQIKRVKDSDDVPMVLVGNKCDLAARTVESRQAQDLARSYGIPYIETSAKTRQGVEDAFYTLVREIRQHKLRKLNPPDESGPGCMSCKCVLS

CREB-binding protein = CREB-binding protein (Homo sapiens, UniProt Q92793); assay: Binding affinity to Poly-Histidine-tagged CBP (unknown origin) expressed in Escherichia coli BL21(DE3) by competition binding assay
Chain of CREB-binding protein (Q92793 whole entry): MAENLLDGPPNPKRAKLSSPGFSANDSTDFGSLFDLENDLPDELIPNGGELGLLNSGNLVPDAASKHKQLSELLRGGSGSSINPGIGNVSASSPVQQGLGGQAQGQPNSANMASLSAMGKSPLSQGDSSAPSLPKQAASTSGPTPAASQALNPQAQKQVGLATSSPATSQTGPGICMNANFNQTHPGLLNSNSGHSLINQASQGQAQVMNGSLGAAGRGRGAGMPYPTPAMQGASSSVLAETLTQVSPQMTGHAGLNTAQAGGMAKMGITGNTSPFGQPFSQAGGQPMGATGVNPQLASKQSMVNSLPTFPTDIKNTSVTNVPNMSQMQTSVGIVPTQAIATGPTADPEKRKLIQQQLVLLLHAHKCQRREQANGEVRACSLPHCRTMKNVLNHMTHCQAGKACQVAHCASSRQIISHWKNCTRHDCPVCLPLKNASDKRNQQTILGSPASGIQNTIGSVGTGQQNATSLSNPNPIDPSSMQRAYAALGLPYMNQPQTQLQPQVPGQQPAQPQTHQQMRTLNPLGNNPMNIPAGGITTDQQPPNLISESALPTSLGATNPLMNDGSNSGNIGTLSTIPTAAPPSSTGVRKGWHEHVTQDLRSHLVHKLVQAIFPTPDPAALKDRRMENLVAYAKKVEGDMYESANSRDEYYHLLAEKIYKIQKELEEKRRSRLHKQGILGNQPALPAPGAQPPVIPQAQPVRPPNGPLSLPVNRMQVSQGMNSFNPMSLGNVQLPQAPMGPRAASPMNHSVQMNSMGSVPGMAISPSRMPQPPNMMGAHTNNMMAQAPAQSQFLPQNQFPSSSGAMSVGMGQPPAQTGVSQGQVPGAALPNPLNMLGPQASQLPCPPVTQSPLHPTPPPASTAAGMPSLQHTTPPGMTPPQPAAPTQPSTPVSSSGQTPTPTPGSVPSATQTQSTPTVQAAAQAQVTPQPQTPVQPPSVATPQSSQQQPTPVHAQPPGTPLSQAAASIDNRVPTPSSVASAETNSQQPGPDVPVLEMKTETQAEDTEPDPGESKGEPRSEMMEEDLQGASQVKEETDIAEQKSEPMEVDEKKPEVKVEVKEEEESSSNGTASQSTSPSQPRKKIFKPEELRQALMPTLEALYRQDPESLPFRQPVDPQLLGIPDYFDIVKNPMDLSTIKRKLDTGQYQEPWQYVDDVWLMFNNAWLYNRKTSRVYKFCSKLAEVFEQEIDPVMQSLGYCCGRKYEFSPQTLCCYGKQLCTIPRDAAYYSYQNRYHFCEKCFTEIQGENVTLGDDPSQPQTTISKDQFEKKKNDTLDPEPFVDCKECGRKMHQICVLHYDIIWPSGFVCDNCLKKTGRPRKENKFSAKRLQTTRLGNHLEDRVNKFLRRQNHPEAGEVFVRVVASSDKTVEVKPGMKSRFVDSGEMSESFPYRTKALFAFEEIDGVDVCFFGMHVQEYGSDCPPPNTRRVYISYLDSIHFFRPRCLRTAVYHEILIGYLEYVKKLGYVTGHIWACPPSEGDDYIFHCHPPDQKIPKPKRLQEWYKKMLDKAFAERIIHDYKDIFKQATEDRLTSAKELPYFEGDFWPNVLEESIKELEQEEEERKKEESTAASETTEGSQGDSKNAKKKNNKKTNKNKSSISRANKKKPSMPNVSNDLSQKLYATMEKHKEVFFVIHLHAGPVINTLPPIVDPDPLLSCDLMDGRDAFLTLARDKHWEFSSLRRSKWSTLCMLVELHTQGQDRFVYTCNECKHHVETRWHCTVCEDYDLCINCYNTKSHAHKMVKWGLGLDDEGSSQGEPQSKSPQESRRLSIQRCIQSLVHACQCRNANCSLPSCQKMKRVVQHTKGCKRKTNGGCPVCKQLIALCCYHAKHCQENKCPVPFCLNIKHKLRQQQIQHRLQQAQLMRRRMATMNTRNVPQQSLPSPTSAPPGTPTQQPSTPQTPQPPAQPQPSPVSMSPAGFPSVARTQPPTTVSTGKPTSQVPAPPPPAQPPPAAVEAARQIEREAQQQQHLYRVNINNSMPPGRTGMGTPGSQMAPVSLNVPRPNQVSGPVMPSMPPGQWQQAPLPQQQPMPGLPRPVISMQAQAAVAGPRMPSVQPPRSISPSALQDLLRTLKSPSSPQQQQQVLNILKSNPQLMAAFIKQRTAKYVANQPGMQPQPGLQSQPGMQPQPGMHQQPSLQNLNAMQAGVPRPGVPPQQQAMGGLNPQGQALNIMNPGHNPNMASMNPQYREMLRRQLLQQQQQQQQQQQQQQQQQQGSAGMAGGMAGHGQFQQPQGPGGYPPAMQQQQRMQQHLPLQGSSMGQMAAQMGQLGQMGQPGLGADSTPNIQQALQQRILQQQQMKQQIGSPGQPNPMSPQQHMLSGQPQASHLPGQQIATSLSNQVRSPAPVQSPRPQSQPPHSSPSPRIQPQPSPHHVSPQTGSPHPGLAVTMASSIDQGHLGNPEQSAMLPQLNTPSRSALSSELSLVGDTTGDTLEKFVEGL

Chain of Beta-2 adrenergic receptor (P07550 whole entry): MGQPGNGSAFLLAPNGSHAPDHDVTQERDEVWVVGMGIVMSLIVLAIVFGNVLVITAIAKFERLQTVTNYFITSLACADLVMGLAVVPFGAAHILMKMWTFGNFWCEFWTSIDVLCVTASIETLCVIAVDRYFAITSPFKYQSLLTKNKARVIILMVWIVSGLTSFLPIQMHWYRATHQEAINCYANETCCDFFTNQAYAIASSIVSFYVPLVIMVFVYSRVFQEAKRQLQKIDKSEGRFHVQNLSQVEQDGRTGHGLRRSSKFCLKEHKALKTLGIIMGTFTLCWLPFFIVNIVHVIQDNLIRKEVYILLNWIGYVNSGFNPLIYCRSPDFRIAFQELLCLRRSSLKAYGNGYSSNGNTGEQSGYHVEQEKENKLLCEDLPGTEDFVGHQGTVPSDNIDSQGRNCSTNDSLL

IC50 [1]: 10 µM
Compound: NCc1ccc(-c2ncccn2)cc1

Compound: Cc1nn(C)c(C)c1CCOc1c(-c2ccc3c(c2)c(CN(C)C)nn3C)ccc(F)c1F
IC50 [2]: < 0.001 µM

IC50 [3]: < 10 µM
Compound: Cc1cc2nccc(-c3ccc(Cl)cc3)n2n1

Kd (GTPase HRas): 0.051 µM
Compound: COc1nc(-c2cccc3c2OCCO3)ccc1Nc1ccc(CN(C)C)cc1

Kd (CREB-binding protein): 53 µM
Compound: CCOc1ccc(C(C)=O)cc1N

IC50 [1]: < 0.001 µM
Compound: Clc1ccc(CNCc2ccc(-c3ncccn3)cc2)cc1Cl

Kd (GTPase HRas): > 370 µM
Compound: O=C(Nc1ccc2ccccc2n1)c1ccco1
